Measurements: patent publication US6818612B2, “Use of parvovirus capsid particles in the inhibition of cell proliferation and migration” (priority 1998, dated 2004)

Legend:
[1] = system: hematopoietic cells obtained from the bone marrow of monkeys; experiment: Colony formation assay on monkey bone marrow cells (Macaque); format: cell-based; conditions: FIG. 2, varying concentrations of capsid
Protocol: (§1) Additionally, colony formation assays in the presence of B19 parvovirus […] were performed, as described above, using hematopoietic cells obtained from the bone marrow of monkeys (Baboons and Macaques).

[2] = system: umbilical cord blood cells; experiment: Colony formation assay on cord blood cells; format: cell-based, human; conditions: for Colony Counts (% of medium control) BFU-E / Colony Counts (% of medium control) CFU-GEMM / Colony Counts (% of medium control) CFU-GM: Cord blood cells, 11 day culture
From the text: (§2) A commercial kit—the “Stem cell CFU kit” (GIBCO BRL, Life Technology Inc., NY, USA)—was used to perform the colony formation assays. The kit provides a semi-solid support that mimics the extracellular matrix produced by stromal cells. Other components included in the kit are: Iscove's modified Dulbecco's medium, modified fetal bovine serum, methylcellulose, 2-mercaptoethanol, conditioned medium and erythropoietin. The colonies that were formed in the assay were identified as BFU-E (burst forming unit-erythroid cells) with densely packed hemoglobonized cells, CFU-GM (colony forming units-granulocytes, macrophages) with arrangements of non-hemoglobinized cells, and CFU-GEMM (colony forming units-granulocytes, erythroid cells, macrophages, megakaryocytes) with hemoglobinized cells and small and large peripheral cells.
(§3) Recombinant B19 parvovirus empty capsid particles (Kajigaya et al., Proc Natl Acad Sci USA, 88:4646 (1991)) were prepared in a recombinant baculovirus-insect cell (Spodofera frugiperda) expression system. (Kajigaya et al., Proc Natl Acad Sci USA, 88:4646 (1991)). The isolated or purified capsids were diluted in buffer (20 mM Tris, 0.5M NaCl, pH 8.5) and 30 μL of each dilution was added to approximately 25×10^3 cells (50×10^3 for postnatal cells) in 100 μL of culture medium and incubated for 1 hour at 4° C. The mixtures were then transferred to incubation dishes and culture medium was added to a final volume of 0.5 ml per well. The cells were then incubated for 11 days in a humidified atmosphere at 5% CO2, and were scored for BFU-E, CFU-GM and CFU-GEMM derived colony formation.
(§4) The inhibitory effect of B19 parvovirus capsids on colony formation was also tested using fresh stem cells derived from cord blood and adult bone marrow samples. Colony formation assays in the presence of B19 parvovirus capsids were performed on cells obtained from umbilical cord blood and bone marrow using the protocol described above. Umbilical cord blood samples were obtained immediately after vaginal delivery from normal births. Samples of adult bone marrow were obtained from healthy allogeneic donors. Suspensions of fresh cells were heparinized and diluted in 0.9% NaCl and separated on Lymphoprep (Nycomed, Parma, Oslo, Norway) for gradient centrifugation at 2000 rpm for 20 min. Cells were carefully removed with a Pasteur pipette, washed three times in 0.9% NaCl, counted and diluted in culture medium in preparation for the colony formation assays.

adult bone marrow cells = experiment: Colony formation assay on adult bone marrow cells; format: cell-based, human; conditions: for Colony Counts (% of medium control) BFU-E / Colony Counts (% of medium control) CFU-GEMM / Colony Counts (% of medium control) CFU-GM: Bone marrow cells, 11 day culture
From the text: as §2, §3, §4

[3] = system: hematopoietic cells obtained from the bone marrow of monkeys; experiment: Colony formation assay on monkey bone marrow cells (Baboon); format: cell-based; conditions: FIG. 2, varying concentrations of capsid
Protocol: as §1

human fetal liver cells = experiment: Colony formation assay (Stem cell CFU kit, 11 day) of fetal liver cells; format: cell-based
From the text: In a first set of experiments, it was discovered that B19 parvovirus capsids inhibit hematopoiesis and that these molecules could be used to reduce the overproduction of red blood cells, white blood cells, and blood platelets, as is experienced by patients suffering from hematological proliferative diseases, such as Polycytemia Vera. (See FIG. 1A). In a first set of experiments, fresh human fetal liver cells, umbilical cord blood cells, and bone marrow cells were contacted with recombinant B19 parvovirus capsids in a colony formation assay. The general features of a colony formation assay are depicted in FIG. 1B. The ability of the B19 parvovirus capsids to inhibit hematopoiesis was verified by the reduction of colony formation in the presence of the capsids, as compared to untreated control populations of cells. A more detailed description of these experiments is provided below.
To obtain fetal liver tissue, human fetuses 6-12 weeks of gestational age were obtained from legal abortions; the patients had volunteered to donate fetal tissue. Gestational age was estimated according to specific anatomical markers and is given as menstruational age. Abortions were performed with vacuum aspirations. Fetal liver was dissected under sterile conditions, placed in a sterile tube containing RPMI1640 and disintegrated by passage through a vinyl mesh to form a single cell suspension. Nucleated cells were then washed three times, counted and diluted in culture medium.
as §2, §3

[4] = B19 parvovirus capsid 0.0007 μg/ml
[5] = B19 parvovirus capsid 0.007 μg/ml
[6] = B19 parvovirus capsid 0.07 μg/ml
[7] = B19 parvovirus capsid 0.7 μg/ml
[8] = B19 parvovirus capsid 7.0 μg/ml
[9] = compared with fetal liver cells
[10] = capsid only, B19 parvovirus capsid 0.14 μg/ml, fetal liver cells, 11 day culture
[11] = capsid only, B19 parvovirus capsid 7 μg/ml, fetal liver cells, 11 day culture
[12] = fetal liver cells, 0.07 μg/ml VP1/2 capsid, FIG. 3
[13] = fetal liver cells, B19 parvovirus capsid 0.007 μg/ml, 11 day culture
[14] = fetal liver cells, B19 parvovirus capsid 0.7 μg/ml, 11 day culture
[15] = fetal liver cells, B19 parvovirus capsid 70.0 μg/ml, pre-incubated prior to 11 day culture

## B19 parvovirus capsid: Recombinant empty B19 parvovirus capsid particles (95% VP2, 5% VP1) from a baculovirus-insect cell expression system
[1]
  primate hematopoietic cell growth: decreased in concordance with an increase in concentration of B19 parvovirus capsid
[2]; [4]
  Colony Counts (% of medium control) BFU-E: 84% of medium control
  Colony Counts (% of medium control) CFU-GEMM: 93% of medium control
  Colony Counts (% of medium control) CFU-GM: 79% of medium control
[2]; [5]
  Colony Counts (% of medium control) BFU-E: 57% of medium control
  Colony Counts (% of medium control) CFU-GEMM: 70% of medium control
  Colony Counts (% of medium control) CFU-GM: 67% of medium control
[2]; [6]
  Colony Counts (% of medium control) BFU-E: 49% of medium control
  Colony Counts (% of medium control) CFU-GEMM: 50% of medium control
  Colony Counts (% of medium control) CFU-GM: 72% of medium control
[2]; [7]
  Colony Counts (% of medium control) BFU-E: 33% of medium control
  Colony Counts (% of medium control) CFU-GEMM: 43% of medium control
  Colony Counts (% of medium control) CFU-GM: 62% of medium control
[2]; [8]
  Colony Counts (% of medium control) BFU-E: 10% of medium control
  Colony Counts (% of medium control) CFU-GEMM: 43% of medium control
  Colony Counts (% of medium control) CFU-GM: 54% of medium control
[2]; FIG. 1C, varying concentrations of capsid
  growth of cells obtained from human cord blood: decreased as the concentration of B19 parvovirus capsid increased
[2]; [9]
  ability to inhibit hematopoietic cells obtained from cord blood: comparable to that exhibited with fetal liver cells
Adult bone marrow cells; [4]
  Colony Counts (% of medium control) BFU-E: 86% of medium control
  Colony Counts (% of medium control) CFU-GEMM: 78% of medium control
  Colony Counts (% of medium control) CFU-GM: 77% of medium control
Adult bone marrow cells; [5]
  Colony Counts (% of medium control) BFU-E: 76% of medium control
  Colony Counts (% of medium control) CFU-GEMM: 78% of medium control
  Colony Counts (% of medium control) CFU-GM: 80% of medium control
Adult bone marrow cells; [6]
  Colony Counts (% of medium control) BFU-E: 63% of medium control
  Colony Counts (% of medium control) CFU-GEMM: 44% of medium control
  Colony Counts (% of medium control) CFU-GM: 41% of medium control
Adult bone marrow cells; [7]
  Colony Counts (% of medium control) BFU-E: 43% of medium control
  Colony Counts (% of medium control) CFU-GEMM: 28% of medium control
  Colony Counts (% of medium control) CFU-GM: 45% of medium control
Adult bone marrow cells; [8]
  Colony Counts (% of medium control) BFU-E: 18% of medium control
  Colony Counts (% of medium control) CFU-GEMM: 6% of medium control
  Colony Counts (% of medium control) CFU-GM: 36% of medium control
Adult bone marrow cells; [9]
  ability to inhibit hematopoietic cells obtained from bone marrow: comparable to that exhibited with fetal liver cells
[3]
  primate hematopoietic cell growth: decreased in concordance with an increase in concentration of B19 parvovirus capsid
Human fetal liver cells; B19 parvovirus capsids 0.14 μg/ml, in the absence of sera
  inhibition of fetal liver cell colony formation: significantly inhibited
Human fetal liver cells; [10]
  Colony Counts (% of medium control) BFU-E: 18% of medium control
  Colony Counts (% of medium control) CFU-GEMM: 63% of medium control
  Colony Counts (% of medium control) CFU-GM: 17% of medium control
Human fetal liver cells; [11]
  Colony Counts (% of medium control) BFU-E: 43% of medium control
  Colony Counts (% of medium control) CFU-GEMM: 21% of medium control
  Colony Counts (% of medium control) CFU-GM: 30% of medium control
Human fetal liver cells; [12]
  colony formation, % of the medium control: ~60 % of the medium control
  inhibition of colony formation: approximately 40%
Human fetal liver cells; fetal liver cells, 70.0 μg/ml B19 parvovirus capsid
  inhibition of colony formation of hematopoietic cells: considerable inhibition
Human fetal liver cells; fetal liver cells, 11 day colony formation assay, 'as little as' / 'as low as'
  lowest concentration at which inhibition of colony formation of hematopoietic cells was seen: 0.007 µg/mL
Human fetal liver cells; [13]
  Colony Counts (% of medium control) BFU-E: 79% of medium control
  Colony Counts (% of medium control) CFU-GEMM: 94% of medium control
  Colony Counts (% of medium control) CFU-GM: 95% of medium control
Human fetal liver cells; [14]
  Colony Counts (% of medium control) BFU-E: 39% of medium control
  Colony Counts (% of medium control) CFU-GEMM: 63% of medium control
  Colony Counts (% of medium control) CFU-GM: 54% of medium control
Human fetal liver cells; [15]
  Colony Counts (% of medium control) BFU-E: 22% of medium control
  Colony Counts (% of medium control) CFU-GEMM: 31% of medium control
  Colony Counts (% of medium control) CFU-GM: 14% of medium control
